Assay results as given in paper PMC12136037, “Type II kinase inhibitors that target Parkinson’s disease–associated LRRK2” (Science Advances, 2025).

Tests used:
Experiment in all cases: DSF 100 kinase selectivity screen;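 further: compound tested at 20 µM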
Type in all cases: binding
[1] = biological target: T1, ~100 representative kinases (Homo sapiens, UniProt P78368); conditions: Protein CSNK1G2; average of three replicates
T1 construct: Recombinant protein kinase domains with a concentration of 2 μM
Summary of the method: (§1)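 Each kinase domain, at 2 μM, is mixed with 20 μM test compound and SYPRO Orange in Hepes (20 mM, pH 7.5) with 500 mM NaCl. Temperature is then raised at 3°C/min and fluorescence-monitored unfolding yields the melting temperature change, ΔTm in degrees Celsius.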

[2] = biological target: T2, ~100 representative kinases (Homo sapiens, UniProt O75385); conditions: Protein ULK1; DSF; average of three replicates
T2 construct: Recombinant protein kinase domains with a concentration of 2 μM
T2 sequence (O75385 1-1050): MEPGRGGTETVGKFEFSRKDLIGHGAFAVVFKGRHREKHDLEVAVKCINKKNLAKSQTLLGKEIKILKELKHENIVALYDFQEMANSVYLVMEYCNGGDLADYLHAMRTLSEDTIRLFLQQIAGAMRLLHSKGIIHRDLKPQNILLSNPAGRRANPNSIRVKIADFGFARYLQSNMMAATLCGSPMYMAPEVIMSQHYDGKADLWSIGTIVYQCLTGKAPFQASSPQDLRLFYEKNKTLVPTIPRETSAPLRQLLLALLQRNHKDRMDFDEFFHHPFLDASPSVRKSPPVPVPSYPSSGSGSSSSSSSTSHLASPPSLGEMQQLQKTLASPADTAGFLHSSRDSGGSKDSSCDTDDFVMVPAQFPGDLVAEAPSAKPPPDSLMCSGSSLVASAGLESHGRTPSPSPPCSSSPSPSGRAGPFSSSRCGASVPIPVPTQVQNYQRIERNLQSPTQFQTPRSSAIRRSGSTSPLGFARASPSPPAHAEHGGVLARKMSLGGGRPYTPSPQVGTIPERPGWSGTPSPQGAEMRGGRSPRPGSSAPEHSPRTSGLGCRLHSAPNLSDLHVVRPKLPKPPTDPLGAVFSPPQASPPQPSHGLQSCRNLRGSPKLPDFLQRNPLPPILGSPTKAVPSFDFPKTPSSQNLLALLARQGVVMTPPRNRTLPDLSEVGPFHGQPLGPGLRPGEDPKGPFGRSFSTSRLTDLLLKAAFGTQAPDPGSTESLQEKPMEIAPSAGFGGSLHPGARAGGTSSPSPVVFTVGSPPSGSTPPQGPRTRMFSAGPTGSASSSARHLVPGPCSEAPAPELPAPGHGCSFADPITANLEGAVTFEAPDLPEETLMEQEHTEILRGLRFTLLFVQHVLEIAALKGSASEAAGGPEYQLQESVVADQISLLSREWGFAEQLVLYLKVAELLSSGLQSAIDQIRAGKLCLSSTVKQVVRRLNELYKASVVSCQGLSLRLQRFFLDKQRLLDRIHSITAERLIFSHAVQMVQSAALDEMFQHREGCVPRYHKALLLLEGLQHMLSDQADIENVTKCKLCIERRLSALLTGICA
Summary of the method: as §1

[3] = biological target: T3, ~100 representative kinases (Homo sapiens, UniProt Q96GD4); conditions: Protein AURKB; average of three replicates
T3 construct: Recombinant protein kinase domains with a concentration of 2 μM
Summary of the method: as §1

[4] = biological target: T4, ~100 representative kinases (Homo sapiens, UniProt P22607); conditions: protein FGFR3; average of three replicates
T4 construct: Recombinant protein kinase domains with a concentration of 2 μM
Summary of the method: as §1

[5] = biological target: T5, ~100 representative kinases (Homo sapiens, UniProt O15164); conditions: Protein TIF1; DSF; average of three replicates
T5 construct: Recombinant protein kinase domains with a concentration of 2 μM
T5 sequence (O15164 1-1050): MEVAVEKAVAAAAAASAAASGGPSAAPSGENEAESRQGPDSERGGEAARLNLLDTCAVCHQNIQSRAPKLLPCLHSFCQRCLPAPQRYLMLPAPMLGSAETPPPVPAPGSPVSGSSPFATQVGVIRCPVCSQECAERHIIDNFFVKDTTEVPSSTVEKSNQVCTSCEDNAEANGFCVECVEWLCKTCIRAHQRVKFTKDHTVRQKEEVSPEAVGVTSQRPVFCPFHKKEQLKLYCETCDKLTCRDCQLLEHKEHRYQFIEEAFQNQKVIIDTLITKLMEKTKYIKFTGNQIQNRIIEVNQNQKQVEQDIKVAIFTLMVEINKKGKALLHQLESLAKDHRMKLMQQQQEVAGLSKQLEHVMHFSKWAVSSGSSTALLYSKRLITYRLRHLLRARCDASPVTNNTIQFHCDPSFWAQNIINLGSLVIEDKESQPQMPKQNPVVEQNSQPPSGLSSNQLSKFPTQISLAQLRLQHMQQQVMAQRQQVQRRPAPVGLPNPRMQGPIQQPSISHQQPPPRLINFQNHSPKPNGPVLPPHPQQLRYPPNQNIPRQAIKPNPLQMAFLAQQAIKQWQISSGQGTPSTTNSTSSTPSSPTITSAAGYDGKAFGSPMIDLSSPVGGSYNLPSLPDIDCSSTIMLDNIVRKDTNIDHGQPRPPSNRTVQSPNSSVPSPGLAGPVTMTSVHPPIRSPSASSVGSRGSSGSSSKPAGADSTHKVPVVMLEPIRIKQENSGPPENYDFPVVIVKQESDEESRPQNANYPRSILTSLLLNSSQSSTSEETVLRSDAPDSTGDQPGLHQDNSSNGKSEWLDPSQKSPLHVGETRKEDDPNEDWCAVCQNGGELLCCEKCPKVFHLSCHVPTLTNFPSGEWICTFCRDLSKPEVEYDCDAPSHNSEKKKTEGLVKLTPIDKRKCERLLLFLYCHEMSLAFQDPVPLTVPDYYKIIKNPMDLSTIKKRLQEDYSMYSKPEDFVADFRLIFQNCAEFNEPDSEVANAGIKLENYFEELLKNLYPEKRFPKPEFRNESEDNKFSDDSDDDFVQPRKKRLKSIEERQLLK
Summary of the method: as §1

[6] = biological target: T6, ~100 representative kinases (Homo sapiens, UniProt Q02750); conditions: protein MAP2K1; average of three replicates
T6 construct: Recombinant protein kinase domains with a concentration of 2 μM
Summary of the method: as §1

T3 sequence (Q96GD4 whole entry, the tested form may be a part): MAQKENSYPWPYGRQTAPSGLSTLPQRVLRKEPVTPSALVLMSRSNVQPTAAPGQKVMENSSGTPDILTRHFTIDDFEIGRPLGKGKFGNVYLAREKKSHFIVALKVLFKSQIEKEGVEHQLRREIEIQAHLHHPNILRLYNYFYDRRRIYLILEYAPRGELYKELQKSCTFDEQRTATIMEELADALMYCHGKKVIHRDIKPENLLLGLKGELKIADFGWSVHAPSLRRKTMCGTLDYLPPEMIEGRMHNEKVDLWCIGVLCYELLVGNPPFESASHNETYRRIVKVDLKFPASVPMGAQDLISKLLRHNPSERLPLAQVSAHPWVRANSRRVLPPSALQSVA
T1 sequence (P78368 whole entry, the tested form may be a part): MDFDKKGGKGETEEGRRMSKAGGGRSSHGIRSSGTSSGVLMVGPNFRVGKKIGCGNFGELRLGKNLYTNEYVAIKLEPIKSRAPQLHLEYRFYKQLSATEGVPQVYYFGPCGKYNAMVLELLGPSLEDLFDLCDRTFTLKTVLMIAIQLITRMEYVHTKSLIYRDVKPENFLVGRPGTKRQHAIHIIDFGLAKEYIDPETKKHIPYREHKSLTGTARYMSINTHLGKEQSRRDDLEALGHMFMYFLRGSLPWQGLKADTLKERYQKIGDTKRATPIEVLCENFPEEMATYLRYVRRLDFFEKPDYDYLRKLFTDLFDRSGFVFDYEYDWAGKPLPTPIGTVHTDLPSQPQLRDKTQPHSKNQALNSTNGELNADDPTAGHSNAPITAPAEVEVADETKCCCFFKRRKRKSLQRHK
T6 sequence (Q02750 whole entry, the tested form may be a part): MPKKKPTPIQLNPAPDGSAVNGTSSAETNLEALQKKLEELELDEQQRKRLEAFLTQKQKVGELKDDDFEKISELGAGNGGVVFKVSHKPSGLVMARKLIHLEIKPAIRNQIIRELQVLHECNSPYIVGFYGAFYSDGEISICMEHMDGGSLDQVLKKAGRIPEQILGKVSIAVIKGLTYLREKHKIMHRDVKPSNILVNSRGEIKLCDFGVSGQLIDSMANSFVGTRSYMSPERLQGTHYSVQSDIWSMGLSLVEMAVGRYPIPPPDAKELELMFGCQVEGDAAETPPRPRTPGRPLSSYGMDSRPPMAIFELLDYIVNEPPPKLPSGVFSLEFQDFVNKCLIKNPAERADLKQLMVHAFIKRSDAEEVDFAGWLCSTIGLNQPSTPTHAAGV
T4 sequence (P22607 23-806): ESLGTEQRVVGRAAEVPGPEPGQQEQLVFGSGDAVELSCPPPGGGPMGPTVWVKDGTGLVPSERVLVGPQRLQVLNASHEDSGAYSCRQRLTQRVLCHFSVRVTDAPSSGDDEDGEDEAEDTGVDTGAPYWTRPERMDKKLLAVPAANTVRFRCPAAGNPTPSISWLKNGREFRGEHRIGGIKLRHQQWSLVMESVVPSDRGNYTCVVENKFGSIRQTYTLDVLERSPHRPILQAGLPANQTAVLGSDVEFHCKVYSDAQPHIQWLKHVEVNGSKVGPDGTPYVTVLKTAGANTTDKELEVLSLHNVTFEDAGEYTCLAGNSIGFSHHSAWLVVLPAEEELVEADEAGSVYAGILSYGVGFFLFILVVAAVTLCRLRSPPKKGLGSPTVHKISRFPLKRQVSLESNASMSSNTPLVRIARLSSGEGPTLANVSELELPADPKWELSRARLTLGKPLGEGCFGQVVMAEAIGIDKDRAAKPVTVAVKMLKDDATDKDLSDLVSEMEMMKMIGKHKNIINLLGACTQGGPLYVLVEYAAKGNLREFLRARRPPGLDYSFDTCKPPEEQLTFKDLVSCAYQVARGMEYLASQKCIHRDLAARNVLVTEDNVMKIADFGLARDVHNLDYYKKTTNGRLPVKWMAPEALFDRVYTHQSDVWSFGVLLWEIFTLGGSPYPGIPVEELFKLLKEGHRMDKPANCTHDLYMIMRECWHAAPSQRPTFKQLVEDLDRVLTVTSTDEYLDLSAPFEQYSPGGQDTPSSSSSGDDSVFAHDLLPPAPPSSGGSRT

Structure (SMILES) | dTm [1] | dTm [2] | dTm [3] | dTm [4] | dTm [5] | dTm [6]
O=C(Nc1ccc(F)cc1)C1(C(=O)Nc2cccc(-c3c[nH]c4ncnc(N5CCOCC5)c34)c2)CC1 [Compound 2] | 0.45 K |  |  |  |  | 
O=C(Nc1cccc(-c2c[nH]c3ncnc(N4CCOCC4)c23)c1)c1cccn(-c2ccc(F)cc2)c1=O [Compound 4] | 0.40 K |  |  |  |  | 
Cc1cc(NC(=O)C2(C(=O)Nc3ccc(F)cc3)CC2)cc(-c2c[nH]c3ncnc(N4CCOCC4)c23)c1 [Compound 6] |  | 5.26 K | 4.75 K | 1.74 K | 2.83 K | 1.10 K
O=C(Nc1cccc(-c2c[nH]c3ncnc(N4CCOCC4)c23)c1)C1(C(=O)Nc2cccc3c2CCC3)CC1 [Compound 11] |  | 6.92 K | -0.43 K | 2.85 K | 3.41 K | 2.12 K
O=C(Nc1ccccc1)C1(C(=O)Nc2cccc(-c3c[nH]c4ncnc(N5CCOCC5)c34)c2)CC1 [Compound 12] | 0.39 K |  |  |  |  | 
O=C(Nc1ccc(Cl)cc1)C1(C(=O)Nc2cccc(-c3c[nH]c4ncnc(N5CCOCC5)c34)c2)CC1 [Compound 13] | 0.51 K |  |  |  |  | 
Cc1ccc(NC(=O)C2(C(=O)Nc3cccc(-c4c[nH]c5ncnc(N6CCOCC6)c45)c3)CC2)cc1 [Compound 14] | 0.81 K |  |  |  |  | 
CCc1ccc(NC(=O)C2(C(=O)Nc3cccc(-c4c[nH]c5ncnc(N6CCOCC6)c45)c3)CC2)cc1 [Compound 15] | 0.60 K |  |  |  |  | 
COc1ccc(NC(=O)C2(C(=O)Nc3cccc(-c4c[nH]c5ncnc(N6CCOCC6)c45)c3)CC2)cc1 [Compound 16] | 0.71 K |  |  |  |  | 
O=C(Nc1cccc(-c2c[nH]c3ncnc(N4CCOCC4)c23)c1)C1(C(=O)Nc2ccc(F)c(F)c2)CC1 [Compound 17] | 0.36 K |  |  |  |  | 
O=C(Nc1cccc(-c2c[nH]c3ncnc(N4CCOCC4)c23)c1)C1(C(=O)Nc2ccc(F)c(Cl)c2)CC1 [Compound 18] | 0.27 K |  |  |  |  | 
O=C(Nc1cccc(-c2c[nH]c3ncnc(N4CCOCC4)c23)c1)C1(C(=O)Nc2ccc(F)c(Br)c2)CC1 [Compound 19] |  | 12.52 K | 5.64 K | 4.74 K | 3.26 K | 2.40 K
Cc1cc(NC(=O)C2(C(=O)Nc3cccc(-c4c[nH]c5ncnc(N6CCOCC6)c45)c3)CC2)ccc1F [Compound 20] | 0.39 K |  |  |  |  | 
COc1cc(NC(=O)C2(C(=O)Nc3cccc(-c4c[nH]c5ncnc(N6CCOCC6)c45)c3)CC2)ccc1F [Compound 21] | 0.57 K |  |  |  |  | 
CC(C)(C)c1cccc(NC(=O)C2(C(=O)Nc3cccc(-c4c[nH]c5ncnc(N6CCOCC6)c45)c3)CC2)c1 [Compound 22] |  | 9.16 K | 1.96 K | 4.54 K | 5.42 K | 2.23 K
O=C(Nc1cccc(-c2c[nH]c3ncnc(N4CCOCC4)c23)c1)C1(C(=O)Nc2ccc(F)cc2F)CC1 [Compound 23] | 0.54 K |  |  |  |  | 
Cc1cc(F)ccc1NC(=O)C1(C(=O)Nc2cccc(-c3c[nH]c4ncnc(N5CCOCC5)c34)c2)CC1 [Compound 24] | 0.62 K |  |  |  |  | 
O=C(Nc1cccc(-c2c[nH]c3ncnc(N4CCOCC4)c23)c1)C1(C(=O)Nc2cc(Br)c(F)cc2F)CC1 [Compound 25] |  | 7.16 K | -2.86 K | 2.90 K | 3.01 K | 2.16 K
O=C(Nc1cccc(-c2c[nH]c3ncnc(N4CCOCC4)c23)c1)C1(C(=O)Nc2ccc(F)c(Br)c2F)CC1 [Compound 26] |  | 8.48 K | 0.97 K | 3.36 K | 2.87 K | 2.67 K
O=C(Nc1cc(F)cc(Br)c1)C1(C(=O)Nc2cccc(-c3c[nH]c4ncnc(N5CCOCC5)c34)c2)CC1 [Compound 27] |  | 6.71 K | 2.17 K | 2.07 K | 4.20 K | 2.13 K
CC(C)(C)c1cc(NC(=O)Nc2cccc(-c3c[nH]c4ncnc(N5CCOCC5)c34)c2)n(-c2ccc3ncccc3c2)n1 [Compound 28] | 0.05 K |  |  |  |  | 
Cc1ccc(-n2nc(C(C)(C)C)cc2NC(=O)Nc2cccc(-c3c[nH]c4ncnc(N5CCOCC5)c34)c2)cc1 [Compound 29] |  | 10.70 K | 3.15 K |  | 0.97 K | 2.87 K
Cc1ccc(-n2nc(C(C)(C)C)cc2NC(=O)Nc2cccc(-c3c[nH]c4nc(Cl)nc(N5CCOCC5)c34)c2)cc1 [Compound 30] |  | 2.91 K | -0.56 K |  | 1.73 K | 0.49 K
CC(=O)N1CCN(c2nc(Cl)nc3[nH]cc(-c4cccc(NC(=O)Nc5cc(C(C)(C)C)nn5-c5ccc(C)cc5)c4)c23)CC1 [Compound 31] |  | 2.80 K | -1.00 K |  | 0.90 K | 0.59 K
CCSc1nc(NC)c2c(-c3cccc(NC(=O)Nc4cc(C(C)(C)C)nn4-c4ccc(C)cc4)c3)c[nH]c2n1 [Compound 32] |  | 0.62 K | 0.28 K |  | 0.82 K | 0.11 K
COc1cc(C(=O)N2CCOCC2)c(F)cc1Nc1nc(N(C)C)c2c(Cl)c[nH]c2n1 [Compound 36] |  | -0.79 K | 1.54 K |  | -2.24 K | -0.30 K
COc1cc(S(C)(=O)=O)ccc1Nc1nc(N(C)C)c2c(Cl)c[nH]c2n1 [Compound 37] |  | -0.88 K | -0.0653 K |  | -0.80 K | -0.22 K
COc1cc2c(Oc3ccc(NC(=O)C4(C(=O)Nc5ccc(F)cc5)CC4)cc3F)ccnc2cc1OCCCN1CCOCC1 [Foretinib, reference compound] | 0.37 K |  |  |  |  | 
CNC(=O)c1cc(Oc2ccc(NC(=O)Nc3cc(C(C)(C)C)nn3-c3ccc4ncccc4c3)c(F)c2)ccn1 [Rebastinib, reference compound] |  | 5.73 K | 1.16 K |  | 0.87 K | 0.92 K
CN[C@@H]1C[C@H]2O[C@@](C)([C@@H]1OC)n1c3ccccc3c3c4c(c5c6ccccc6n2c5c31)C(=O)NC4 [Staurosporine] |  | 14.02 K |  |  |  | 
